Experimental data reported in article PMC6333907, “Oligopeptide Signaling through TbGPR89 Drives Trypanosome Quorum Sensing” (Cell, 2019).

Molecular target: T1, YjdL (Escherichia coli, UniProt P39276)
T1 construct: gene dtpC; pET28a-YjdL, His-tag vector, overexpressed in whole E. coli BL21-CodonPlus (DE3)-RIPL cells
T1 sequence (P39276 1-485): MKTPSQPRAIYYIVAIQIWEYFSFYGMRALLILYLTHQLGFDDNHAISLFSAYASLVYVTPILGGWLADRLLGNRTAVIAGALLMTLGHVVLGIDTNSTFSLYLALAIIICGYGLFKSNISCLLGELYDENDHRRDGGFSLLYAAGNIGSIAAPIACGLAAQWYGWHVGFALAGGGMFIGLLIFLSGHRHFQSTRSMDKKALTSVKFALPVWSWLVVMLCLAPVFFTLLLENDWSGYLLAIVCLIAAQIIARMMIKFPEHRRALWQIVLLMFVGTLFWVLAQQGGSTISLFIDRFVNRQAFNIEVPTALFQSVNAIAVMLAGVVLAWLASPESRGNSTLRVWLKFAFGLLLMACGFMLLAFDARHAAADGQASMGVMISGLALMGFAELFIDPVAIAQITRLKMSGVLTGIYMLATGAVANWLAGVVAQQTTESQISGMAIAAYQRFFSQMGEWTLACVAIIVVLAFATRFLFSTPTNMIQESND
Assay: fluorescent dipeptide uptake in E. coli expressing the protein
Format: cell-based
Details: pH 6.5, 37 °C, 15-20 min; printed final 500 μM (1.5 μl of 20 mM in 100 μl); labelled compound

## Cc1c(CC(=O)NCCCC[C@H](NC(=O)CCN)C(=O)O)c(=O)oc2cc(N)ccc12 [β-Ala-Lys-AMCA]
  fluorescent dipeptide uptake in E. coli expressing the protein: Relative uptake of fluorescent dipeptide β-ALA-Lys-AMCA in E. coli induced (+IPTG)
